Here are results for 5 compounds from ChEMBL document CHEMBL1140628, “Assessing potency of c-Jun N-terminal kinase 3 (JNK3) inhibitors using 2D molecular descriptors and binary QSAR methodology” (Bioorg Med Chem, 2007).

This assay deals with Mitogen-activated protein kinase 10 (Homo sapiens, UniProt P53779). The assay can be described thus: Inhibition of JNK3.

Each structure is given as a SMILES string. pIC50: −log10 of the molar value.

Mitogen-activated protein kinase 10, sequence (P53779 whole entry): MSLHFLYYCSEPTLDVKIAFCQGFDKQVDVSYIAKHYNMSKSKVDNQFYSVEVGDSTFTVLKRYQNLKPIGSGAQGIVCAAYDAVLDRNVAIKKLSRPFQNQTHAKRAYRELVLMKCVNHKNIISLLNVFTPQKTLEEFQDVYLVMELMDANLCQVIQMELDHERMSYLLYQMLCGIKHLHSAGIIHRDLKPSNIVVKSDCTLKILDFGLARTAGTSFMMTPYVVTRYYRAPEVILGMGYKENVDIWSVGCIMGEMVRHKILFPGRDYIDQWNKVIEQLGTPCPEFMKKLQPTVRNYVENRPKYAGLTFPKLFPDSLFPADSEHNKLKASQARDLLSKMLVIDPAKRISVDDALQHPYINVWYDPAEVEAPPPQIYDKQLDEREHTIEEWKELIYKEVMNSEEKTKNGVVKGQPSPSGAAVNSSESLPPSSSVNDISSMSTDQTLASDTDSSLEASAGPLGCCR

For orientation: pIC50 means −log10 of the IC50, conventionally taken in molar units. Higher therefore signals a low IC50. In turn, `CCCn1c(C2CCN(C)CC2)nc(-c2ccc(Cl)c(Cl)c2)c1-c1ccnc(NC2CC2)n1` had a pIC50 of 8.80.

On to `NC1=CC=C2SN=C3c4ccccc4C(=O)C1C23` (stereo not given), for which the pIC50 is 6.40.

`N#C/C(=C1/Nc2ccccc2S1)c1ccnc(NCCc2ccc(S(N)(=O)=O)cc2)n1`: the negative-log IC50 (pIC50) is 7.39.

The compound `COc1ccc(CCNc2nccc(/C(C#N)=C3\Nc4ccccc4S3)n2)cc1` gave a pIC50 of 8.51.

The compound `Oc1c2ccccc2c2c3c(cccc13)N=N2` [SP-600125] gave a pIC50 of 6.72.
